In PubChem BioAssay (NCI) one finds GI50 and TGI data, which are given here for nine compounds.

Holding throughout (experiment): growth of human tumour cells (NCI), 48 h
For assay [1], the system named is MCF7 breast.
Assay [2] relates to RPMI-8226 leukemia.
Assay [3] concerns HOP-62 NSCLC.
The subject of assay [4] is UACC-62 melanoma.
In assay [5] the test system is SN12C renal.
The test system of assay [6] is NCI-H522 lung.
The test system of assay [7] is KM12 colon.
Assay [8] deals with SF-295 CNS.
In assay [9] the test system is SF-539 CNS.
Assay [10] concerns HOP-92 NSCLC.

The structures appear in SMILES notation.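 Five concentrations, 48 hours, 96-well plates. GI50 marks 50% less growth. The concentration for full growth arrest is given as TGI.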 Bounds are passed on as bounds.

For `CCCCCCCCCCNC(=O)CI`, the GI50 was 1.97 µM in assay [1]; 2.21 µM in [2]; 1.95 µM in [3]; 1.69 µM in assay [4]; 1.21 µM in assay [5]; 0.151 µM in assay [6]. Also, the values for the GI50 in [7], in assay [8] and in assay [9] were 2.13 µM, 4.58 µM and 1.78 µM, respectively. The TGI is 4.59 µM in assay [1]; 5.02 µM in assay [2]; 4.04 µM in assay [3]; 3.28 µM in assay [4]; 2.8 µM in assay [5]; 0.331 µM in assay [6]. In addition, the TGI in assay [7] is 4.29 µM; in assay [8], 13.2 µM; in [9], 3.22 µM.

On to `O=C(O)c1cccc(COc2ccc([N+](=O)[O-])cc2Cl)c1`, for which the GI50 in assay [1] was above 100 µM; in assay [2], above 100 µM; in assay [3] it was above 100 µM; in [4] it was above 100 µM; in assay [6] it was 18.4 µM; in assay [7], above 100 µM. The GI50 was above 100 µM in assay [8] and 45.2 µM in assay [10]. Further, the TGI in assay [1] was above 100 µM; in assay [2], above 100 µM; in assay [3], above 100 µM; in assay [4], above 100 µM; in assay [6], 93 µM; in assay [7], above 100 µM. Besides, the TGI in assay [8] and in [10] was above 100 µM each time.

Turning to `CCCC(=O)C1=C(O)C(Cc2c(O)c(C)c(O)c(C(=O)CCC)c2O)=C(O)C(C)(C)C1=O`, the TGI in [1], in assay [2], in assay [3], in [4], in assay [5] and in assay [7] was above 50 µM in each case. Further, the TGI in [8] and in assay [10] was above 50 µM throughout.

As for `O=C1CCCN1c1ccccc1I(=O)=O`, the GI50 in assay [1], in assay [2], in assay [4], in [5], in assay [6] and in assay [7] was above 100 µM in each case. Further, the GI50 in [8], in assay [9] and in [10] was above 100 µM each time. In addition, the TGI in [1], in [2], in [4], in assay [5], in [6] and in assay [7] was above 100 µM in each case. The TGI in assay [8], in [9] and in assay [10] was above 100 µM in each case.

As to `Cc1cc(N/N=C/c2ccccn2)nc2ccccc12`, the GI50 in assay [1] is 0.316 µM; in [2], 0.41 µM; in assay [3] it was 0.331 µM; in assay [4] it was 0.406 µM; in assay [5], 0.368 µM; in [6] it was 0.359 µM. The GI50 in assay [7] was 0.508 µM; in [8], 0.307 µM; in [9], 0.289 µM. In addition, the TGI is 8.94 µM in assay [1]; 12.5 µM in assay [2]; 5.06 µM in assay [3]; 3.36 µM in assay [4]; 17.3 µM in [5]; 4.81 µM in assay [6]. In addition, the TGI in assay [7] is 14.9 µM; in [8] it was 3.2 µM; in assay [9], 1.04 µM.

For the compound `COC(=O)c1cc2c(o1)-c1nccc3c1c(nc1ccccc13)C2=O`, the GI50 in assay [1] is 2.07 µM; in assay [2], 2.03 µM; in assay [3] it was 1.4 µM; in assay [5] it was 4.04 µM; in assay [7], 3.77 µM; in assay [8], 4.51 µM. Further, the GI50 in assay [9] was 2.69 µM; in assay [10], 1.96 µM. Moreover, the TGI in assay [1] was 15.6 µM; in assay [2] it was 18 µM; in assay [3], 11 µM; in assay [5] it was 18.1 µM; in assay [7] it was 16.7 µM; in assay [8], 18.3 µM. Further, the TGI amounted to 9.7 µM in [9] and 17.7 µM in assay [10].

For the compound `Nc1ccccc1C(=O)/C=C/c1c(O)ccc2ccccc12`, the TGI in assay [2], in assay [3], in assay [4], in assay [5], in [6] and in [7] was above 100 µM throughout. The TGI in [8], in [9] and in assay [10] was above 100 µM each time.

For `N#CCCN1C/C(=C/c2ccc(Br)cc2)C(=O)/C(=C/c2ccc(Br)cc2)C1`, the GI50 in assay [1] is 0.764 µM; in [2], 0.262 µM; in assay [3], 1.66 µM; in assay [4], 1.93 µM; in assay [5], 1.88 µM; in assay [6], 1.89 µM. Further, the GI50 in [9] is 1.61 µM; in assay [10], 1.71 µM. The TGI in assay [1] is 10.4 µM; in assay [2], above 100 µM; in assay [3] it was 3.57 µM; in assay [4], 4.52 µM; in assay [5] it was 4.6 µM; in assay [6], 3.81 µM. The figures for the TGI in [9] and in assay [10] were 2.99 µM and 4.89 µM, respectively.

In the case of `ClCCN(CCCl)c1ccc(CNc2ccccc2)cc1`, the GI50 was 4.19 µM in assay [1]; 12.9 µM in assay [2]; 6.32 µM in [3]; 4 µM in assay [5]; 4.85 µM in assay [6]; 24.7 µM in assay [7]. The values for the GI50 in assay [8] and in assay [9] were 3.16 µM and 3.21 µM, respectively. The TGI in assay [1] is above 100 µM; in assay [2], 69.4 µM; in assay [3] it was above 100 µM; in assay [5], above 100 µM; in [6], 22 µM; in assay [7], above 100 µM. Further, the figures for the TGI in assay [8] and in assay [9] were above 100 µM and 24.2 µM, respectively.
